Tests used:
[1] = biological target: T1, Melanocortin receptor 3 (Homo sapiens, UniProt P41968); assay: Displacement of [125I]NDP-MSH from human recombinant MC3 receptor expressed in Sf9 cells
[2] = biological target: T2, Melanocortin receptor 4 (Homo sapiens, UniProt P32245); assay: Displacement of [125I]NDP-MSH from human recombinant MC4 receptor expressed in Sf9 cells
[3] = biological target: T3, Melanocyte-stimulating hormone receptor (Mus musculus, UniProt Q01727); assay: Displacement of [125I]NDP-MSH from MC1 receptor in mouse B16 cells; type: cell-based
T3 sequence (Q01727 whole entry): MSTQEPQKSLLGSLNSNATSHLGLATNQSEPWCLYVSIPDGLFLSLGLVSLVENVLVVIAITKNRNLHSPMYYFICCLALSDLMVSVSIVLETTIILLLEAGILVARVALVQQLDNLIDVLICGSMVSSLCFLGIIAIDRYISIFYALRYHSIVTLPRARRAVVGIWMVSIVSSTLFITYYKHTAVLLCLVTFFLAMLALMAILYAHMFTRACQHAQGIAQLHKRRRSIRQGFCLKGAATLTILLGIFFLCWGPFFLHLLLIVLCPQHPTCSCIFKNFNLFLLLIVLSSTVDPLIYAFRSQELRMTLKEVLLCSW

[4] = biological target: Melanocortin receptor 5 (Homo sapiens, UniProt P33032); assay: Displacement of [125I]NDP-MSH from human recombinant MC5 receptor expressed in Sf9 cells up to 1 mM
Sequence of Melanocortin receptor 5 (P33032 whole entry): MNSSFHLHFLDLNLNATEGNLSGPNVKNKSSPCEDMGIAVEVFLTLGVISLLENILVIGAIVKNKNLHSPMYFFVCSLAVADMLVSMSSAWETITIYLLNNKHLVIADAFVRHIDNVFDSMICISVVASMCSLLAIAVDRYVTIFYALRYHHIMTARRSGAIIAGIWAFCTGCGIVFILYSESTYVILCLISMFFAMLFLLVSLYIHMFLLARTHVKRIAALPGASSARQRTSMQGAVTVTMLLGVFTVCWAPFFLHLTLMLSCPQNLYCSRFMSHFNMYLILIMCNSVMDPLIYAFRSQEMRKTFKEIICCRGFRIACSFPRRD

[5] = biological target: T3, Melanocyte-stimulating hormone receptor; assay: Displacement of [125I]NDP-MSH from MC1 receptor in mouse B16 cells up to 1 mM; type: cell-based
[6] = biological target: T1, Melanocortin receptor 3; assay: Displacement of [125I]NDP-MSH from human recombinant MC3 receptor expressed in Sf9 cells up to 1 mM
[7] = biological target: T2, Melanocortin receptor 4; assay: Displacement of [125I]NDP-MSH from human recombinant MC4 receptor expressed in Sf9 cells up to 1 mM

T1 sequence (P41968 whole entry): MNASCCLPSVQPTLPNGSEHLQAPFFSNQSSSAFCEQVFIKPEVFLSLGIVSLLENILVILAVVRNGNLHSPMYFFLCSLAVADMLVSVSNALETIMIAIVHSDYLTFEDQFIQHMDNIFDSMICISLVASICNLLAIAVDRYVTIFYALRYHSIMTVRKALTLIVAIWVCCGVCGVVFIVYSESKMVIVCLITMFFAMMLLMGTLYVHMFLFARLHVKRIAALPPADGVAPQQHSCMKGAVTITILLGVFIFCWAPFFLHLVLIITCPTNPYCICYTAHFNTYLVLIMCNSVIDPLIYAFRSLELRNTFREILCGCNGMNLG
T2 sequence (P32245 whole entry): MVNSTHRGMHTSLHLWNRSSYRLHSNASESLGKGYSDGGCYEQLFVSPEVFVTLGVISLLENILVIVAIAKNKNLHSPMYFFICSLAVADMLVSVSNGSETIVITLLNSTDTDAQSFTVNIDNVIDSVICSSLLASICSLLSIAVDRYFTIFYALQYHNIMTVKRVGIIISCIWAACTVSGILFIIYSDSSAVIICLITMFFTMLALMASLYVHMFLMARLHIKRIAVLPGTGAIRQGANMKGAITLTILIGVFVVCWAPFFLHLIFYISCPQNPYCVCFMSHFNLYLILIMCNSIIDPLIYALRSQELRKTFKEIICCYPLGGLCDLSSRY

Ki [1] [µM]	Ki [2] [µM]	Ki [3] [µM]	Ki [4]	Ki [5]	Ki [6]	Ki [7]	Structure (SMILES)
21	26	6.4	Not Active	–	–	–	NCCCN(C/C=C/c1ccccc1)C(=O)Cc1c[nH]c2ccccc12
–	–	–	Not Active	Not Active	Not Active	Not Active	NCCCCCN(Cc1ccccc1)C(=O)[C@H](N)Cc1ccccn1

Reference: ChEMBL document CHEMBL1149662, “Design and synthesis of a library of tertiary amides: evaluation as mimetics of the melanocortins' active core” (Bioorg Med Chem, 2007)
